Test system: gene expression in Col-0 seedling shoots
Assay: Microarray analysis (ATH1 Affymetrix) after BL or abrasin treatment
Assay type: in vivo, Arabidopsis
Settings: 120 min
Protocol: FIG. 14: Clustering of gene expression profiles by QT-clust analysis. Clusters illustrating the major patterns of the data sets. Points: BIK-30: 30 μM abrasin 30 min; BL-30: 1 μM brassinolide 30 min; DMSO-30: control DMSO 30 min; BIK-120: 30 μM abrasin 120 min; BL-120: 1 μM brassinolide 120 min; DMSO-120: control DMSO 120 min.
Col-0 seeds were germinated vertically on ½ MS medium for 7 days under 16 h light/8 h dark cycles. The seedlings were overlaid with liquid ½ MS medium containing 1 μM brassinolide (BL, Fuji Chemical Industries, Ltd., Toyama, Japan), 30 μM abrasin (BIK, ChemBridge Corporation) and DMSO and treated for 30 and 120 min. The shoot parts were collected for RNA isolation. All sampling points were performed in three independent experiments. RNA was extracted using RNeasy kit (Qiagene). […] total RNA per array was used to hybridise the ATH1 Affymetrix Arabidopsis arrays according to standard procedure. The overrepresentation analyses were performed using BiNGO software (Maere et al., 2005).
We performed a microarray analysis using the Arabidopsis whole genome chip (Affymetix) to determine whether abrasin activated the expression of BR-inducible genes at transcriptional level. Wild-type Col-0 seedlings were exposed to 1 μM BL, 30 μM ABRASIN and DMSO (mock-treatment) for two time points (30 min and 120 min) and the shoot parts were collected for RNA isolation. The analysis of the variance of the normalized gene expression data took in account the variability parameters affecting the expression level: type of hormone treatment, duration of treatment and the interaction between these two.

CC(C)[C@H](C)[C@@H](O)[C@H](O)[C@@H](C)[C@H]1CC[C@H]2[C@@H]3COC(=O)[C@H]4C[C@H](O)[C@H](O)C[C@]4(C)[C@H]3CC[C@]12C [BL, brassinolide, reference compound]
Fold-change AT4G16780 homeobox-leucine zipper protein 4 (HAT4)/HD-ZIP protein: 0.51 | Fold-change AT4G17250 expressed protein: 1.82 | Fold-change AT4G17460 homeobox-leucine zipper protein 1 (HAT1)/HD-ZIP protein 1: 0.19 | Fold-change AT4G21510 F-box family protein: 2.09 | Fold-change AT4G23030 MATE efflux protein-related: 2.20 | Fold-change AT4G23070 rhomboid family protein: 2.03 | Fold-change AT4G23810 WRKY family transcription factor: 0.55 | Fold-change AT4G24160 hydrolase, alpha/beta fold family protein: 1.14 | Fold-change AT4G25620 hydroxyproline-rich glycoprotein family protein: 0.86 | Fold-change AT4G25780 pathogenesis-related protein: 0.26 | Fold-change AT4G27970 C4-dicarboxylate transporter/malic acid transport family protein: 1.28 | Fold-change AT4G28240 wound-responsive protein-related: 0.41 | Fold-change AT4G28490 leucine-rich repeat transmembrane protein kinase, putative: 0.78 | Fold-change AT4G28703 expressed protein: 0.89 | Fold-change AT4G28780 GDSL-motif lipase/hydrolase family protein: 2.29 | Fold-change AT4G29070 expressed protein: 0.74 | Fold-change AT4G30080 transcriptional factor B3 family protein: 0.49 | Fold-change AT4G31020 expressed protein: 0.67 | Fold-change AT4G32280 auxin-responsive AUX/IAA family protein (IAA29): 0.22 | Fold-change AT4G33050 calmodulin-binding family protein: 0.57 | Fold-change AT4G33700 CBS domain-containing protein: 0.51 | Fold-change AT4G34610 homeodomain-containing protein: 0.37 | Fold-change AT4G36110 auxin-responsive protein: 7.86 | Fold-change AT4G36780 brassinosteroid signalling positive regulator-related: 0.09 | Fold-change AT4G37240 expressed protein: 2.33 | Fold-change AT4G37290 expressed protein: 0.40 | Fold-change AT4G37590 phototropic-responsive NPH3 family protein: 0.53 | Fold-change AT4G38840 auxin-responsive protein (SAUR14): 2.53 | Fold-change AT4G38850 auxin-responsive protein (SAUR-AC1): 3.03 | Fold-change AT4G38860 auxin-responsive protein (SAUR16): 3.40 | Fold-change AT4G39400 brassinosteroid insensitive 1 (BRI1): 0.57 | Fold-change AT5G02020 expressed protein: 0.96 | Fold-change AT5G05690 cytochrome P450 90A1 (CYP90A1) (CYP90) (CPD): 0.41 | Fold-change AT5G07690 myb family transcription factor (MYB29): 0.40 | Fold-change AT5G08130 basic helix-loop-helix (bHLH) family protein (BIM2): 0.42 | Fold-change AT5G12050 expressed protein: 0.34 | Fold-change AT5G13180 no apical meristem (NAM) family protein: 0.50 | Fold-change AT5G13740 sugar transporter family protein: 0.36 | Fold-change AT5G14730 expressed protein: 0.55 | Fold-change AT5G16200 50S ribosomal protein-related: 0.20 | Fold-change AT5G16980 NADP-dependent oxidoreductase: 1.26 | Fold-change AT5G18750 DNAJ heat shock N-terminal domain-containing protein: 0.56 | Fold-change AT5G19200 short-chain dehydrogenase/reductase (SDR) family protein: 2.47 | Fold-change AT5G19340 expressed protein: 0.39 | Fold-change AT5G24030 C4-dicarboxylate transporter/malic acid transport family protein: 1.90 | Fold-change AT5G24660 expressed protein: 2.26 | Fold-change AT5G25240 expressed protein: 3.69 | Fold-change AT5G25930 leucine-rich repeat family protein: 0.63 | Fold-change AT5G27350 sugar-porter family protein 1 (SFP1): 2.04 | Fold-change AT5G27670 histone H2A: 0.50 | Fold-change AT5G38310 expressed protein: 0.93 | Fold-change AT5G38990; AT5G39000 [AT5G38990, protein kinase family protein: 0.74 | Fold-change AT5G39050 transferase family protein: 0.62 | Fold-change AT5G39610 no apical meristem (NAM) family protein: 0.22 | Fold-change AT5G39970 expressed protein: 0.99 | Fold-change AT5G42830 transferase family protein: 0.62 | Fold-change AT5G47370 homeobox-leucine zipper protein 2 (HAT2): 0.87 | Fold-change AT5G48070 putative xyloglucan endotransglycosylase/hydrolase: 1.24 | Fold-change AT5G48540 33 kDa secretory protein-related: 0.55 | Fold-change AT5G51550 phosphate-responsive 1 family protein: 0.37 | Fold-change AT5G54490 calcium-binding EF-hand protein, putative: 1.75 | Fold-change AT5G54860 integral membrane transporter family protein: 0.82 | Fold-change AT5G55970 zinc finger (C3HC4-type RING finger) family protein: 1.82 | Fold-change AT5G56980 expressed protein: 0.20 | Fold-change AT5G57190 phosphatidylserine decarboxylase: 0.60 | Fold-change AT5G57780 expressed protein: 0.12 | Fold-change AT5G59080 expressed protein: 0.53 | Fold-change AT5G60200 Dof-type zinc finger domain-containing protein: 1.67 | Fold-change AT5G60270 lectin protein kinase family protein: 1.82 | Fold-change AT5G60630 expressed protein: 1.15 | Fold-change AT5G61600 encodes a member of the ERF (ethylene response factor): 2.06 | Fold-change AT5G62360 invertase/pectin methylesterase inhibitor family protein: 0.45 | Fold-change AT5G65310 homeobox-leucine zipper protein 5 (HB-5)/HD-ZIP transcription factor 5: 0.27 | Fold-change AT5G66420 expressed protein: 0.43 | Fold-change AT5G66590 allergen V5/Tpx-1-related family protein: 0.58 | Fold-change AT5G67450 zinc finger (C2H2 type) protein 1 (AZF1): 0.89 | Fold-change of gene AT4G16140 (proline-rich family protein) (245479_at, Cluster 6): 0.75 | Fold-change of gene AT4G15260 (UDP-glucoronosyl/UDP-glucosyl transferase family protein) (245543_at, Cluster 7): 0.67 | Fold-change of gene AT5G09440 (phosphate-responsive protein, putative) (245885_at, Cluster 5): 0.13 | Fold-change of gene AT1G77380 (amino acid carrier) (246389_at, Cluster 10): 0.40 | Fold-change of gene AT5G15740 (expressed protein) (246516_at, Cluster 5): 0.69 | Fold-change of gene AT5G65300 (expressed protein) (247177_at, Cluster 5): 0.36 | Fold-change of gene AT5G64890 (expressed protein) (247205_at, Cluster 10): 0.85 | Fold-change of gene AT5G63790 (no apical meristem (NAM) family protein) (247351_at, Cluster 9): 0.27 | Fold-change of gene AT5G62630 (expressed protein) (247444_at, Cluster 7): 1.26 | Fold-change of gene AT5G60850 (Dof-type zinc finger domain-containing protein) (247601_at, Cluster 10): 1.10 | Fold-change of gene AT5G59510 (expressed protein) (247704_at, Cluster 9): 0.13 | Fold-change of gene AT5G58660 (oxidoreductase. 2OG-Fe(II) oxygenase family protein) (247774_at, Cluster 5): 2.85 | Fold-change of gene AT5G54120 (expressed protein) (248190_at, Cluster 5): 0.94 | Fold-change of gene AT5G54130 (calcium-binding EF hand family protein) (248191_at, Cluster 5): 0.88 | Fold-change of gene AT5G52900 (expressed protein) (248282_at, Cluster 6): 0.50 | Fold-change of gene AT5G49100 (expressed protein) (248646_at, Cluster 9): 0.38 | Fold-change of gene AT5G18060 (auxin-responsive protein) (250012_x_at, Cluster 6): 0.28 | Fold-change of gene AT5G09800 (U-box domain-containing protein) (250493_at, Cluster 9): 0.30 | Fold-change of gene AT5G08565 (expressed protein) (250537_at, Cluster 8): 0.78 | Fold-change of gene AT5G03670 (expressed protein) (250907_at, Cluster 5): 0.37 | Fold-change of gene AT5G01740 (expressed protein) (251072_at, Cluster 5): 0.47 | Fold-change of gene AT3G63380 (calcium-transporting ATPase) (251176_at, Cluster 10): 0.10 | Fold-change of gene AT3G60690 (auxin-responsive family protein) (251342_at, Cluster 9): 0.27 | Fold-change of gene AT3G45610 (Dof-type zinc finger domain) (252586_at, Cluster 10): 1.05 | Fold-change of gene AT3G44610 (protein kinase family protein) (252646_at, Cluster 5): 1.03 | Fold-change of gene AT4G34760 (auxin-responsive family protein) (253255_at, Cluster 6): 0.62 | Fold-change of gene AT4G34138 (UDP-glucoronosyl/UDP-glucosyl transferase family protein) (253281_at, Cluster 7): 1.74 | Fold-change of gene AT4G31910 (transferase family protein) (253483_at, Cluster 5): 0.78 | Fold-change of gene AT4G30410 (expressed protein) (253617_at, Cluster 5): 0.45 | Fold-change of gene AT4G30450 (glycine-rich protein) (253629_at, Cluster 5): 0.59 | Fold-change of gene AT4G26200 (1-aminocyclopropane-1-carboxylate synthase) (253999_at, Cluster 9): 0.11 | Fold-change of gene AT4G03400 (auxin-responsive GH3 family protein) (255403_at, Cluster 6): 0.48 | Fold-change of gene AT4G02700 (sulfate transporter) (255443_at, Cluster 7): 1.20 | Fold-change of gene AT1G22190 (AP2 domain-containing transcription factor) (255926_at, Cluster 8): 0.89 | Fold-change of gene AT1G66140 (zinc finger (C2H2 type) family protein) (256528_at, Cluster 6): 0.46 | Fold-change of gene AT3G25655 (expressed protein) (256762_at, Cluster 8): 0.12 | Fold-change of gene AT3G21420 (oxidoreductase, 2OG-Fe(II) oxygenase family protein) (256818_at, Cluster 7): 1.29 | Fold-change of gene AT3G18280 (protease inhibitor/seed storage/lipid transfer protein) (257066_at, Cluster 5): 0.92 | Fold-change of gene AT1G29440 (auxin-responsive family protein) (257506_at, Cluster 6): 0.34 | Fold-change of gene AT3G29200 (chorismate mutase, chloroplast (CM1)) (257746_at, Cluster 5): 0.66 | Fold-change of gene AT1G13260 (DNA-binding protein RAV1 (RAV1)) (259364_at, Cluster 8): 0.67 | Fold-change of gene AT1G29500 (auxin-responsive protein) (259773_at, Cluster 6): 0.39 | Fold-change of gene AT1G29510 (auxin-responsive protein) (259783_at, Cluster 6): 0.36 | Fold-change of gene AT1G29450 (auxin-responsive protein) (259784_at, Cluster 6): 0.37 | Fold-change of gene AT1G29460 (auxin-responsive protein) (259787_at, Cluster 6): 0.28 | Fold-change of gene AT1G76690; AT1G76680 ([AT1G76690, 12-oxophytodienoate reductase (OPR2)) (259875_s_at, Cluster 7): 0.89 | Fold-change of gene AT1G76620 (expressed protein) (259985_at, Cluster 8): 0.37 | Fold-change of gene AT1G63720 (expressed protein) (260243_at, Cluster 10): 0.17 | Fold-change of gene AT1G48100 (glycoside hydrolase family 28 protein) (260727_at, Cluster 8): 1.16 | Fold-change of gene AT1G12200 (flavin-containing monooxygenase family protein) (261023_at, Cluster 7): 1.40 | Fold-change of gene AT1G12845 (expressed protein) (261203_at, Cluster 6): 0.47 | Fold-change of gene AT1G15550 (gibberellin 3-beta-dioxygenase) (261768_at, Cluster 6): 0.52 | Fold-change of gene AT1G80840 (WRKY family transcription factor) (261892_at, Cluster 9): 0.05 | Fold-change of gene AT1G80080 (leucine-rich repeat family protein) (262040_at, Cluster 6): 0.39 | Fold-change of gene AT1G80130 (expressed protein) (262050_at, Cluster 8): 0.36 | Fold-change of gene AT1G21680 (expressed protein) (262505_at, Cluster 10): 1.29 | Fold-change of gene AT1G34245 (expressed protein) (262543_at, Cluster 6): 0.67 | Fold-change of gene AT1G78460 (SOUL heme-binding family protein) (263126_at, Cluster 7): 1.49 | Fold-change of gene AT1G78820; AT1G78830 ([AT1G78820, curculin-like (mannose-binding) lectin family protein) (264279_s_at, Cluster 7): 0.86 | Fold-change of gene AT2G42380 (bZIP transcription factor family protein) (265877_at, Cluster 6): 0.39 | Fold-change of gene AT2G45080 (cyclin family protein) (266124_at, Cluster 8): 0.27

— US8273775B2, “Non-steroidal brassinosteroid mimetic” (priority 2006, dated 2012)
